We go through two molecules from PMC10578352, “Identification of a Protein Arginine Methyltransferase 7 (PRMT7)/Protein Arginine Methyltransferase 9 (PRMT9) Inhibitor” (Journal of Medicinal Chemistry, 2023).

What is called IC50 is the concentration that inhibits the measured activity by half.

Holding throughout (assay type): biochemical
In test [1] the target is T1, PRMT3 (Homo sapiens, UniProt O60678).
T1 construct: PRMT3 (residues 2–531, C-terminus); with an N-terminal His-tag; His (N); purchased Reaction Biology Corporation
T1 sequence (O60678 2-531): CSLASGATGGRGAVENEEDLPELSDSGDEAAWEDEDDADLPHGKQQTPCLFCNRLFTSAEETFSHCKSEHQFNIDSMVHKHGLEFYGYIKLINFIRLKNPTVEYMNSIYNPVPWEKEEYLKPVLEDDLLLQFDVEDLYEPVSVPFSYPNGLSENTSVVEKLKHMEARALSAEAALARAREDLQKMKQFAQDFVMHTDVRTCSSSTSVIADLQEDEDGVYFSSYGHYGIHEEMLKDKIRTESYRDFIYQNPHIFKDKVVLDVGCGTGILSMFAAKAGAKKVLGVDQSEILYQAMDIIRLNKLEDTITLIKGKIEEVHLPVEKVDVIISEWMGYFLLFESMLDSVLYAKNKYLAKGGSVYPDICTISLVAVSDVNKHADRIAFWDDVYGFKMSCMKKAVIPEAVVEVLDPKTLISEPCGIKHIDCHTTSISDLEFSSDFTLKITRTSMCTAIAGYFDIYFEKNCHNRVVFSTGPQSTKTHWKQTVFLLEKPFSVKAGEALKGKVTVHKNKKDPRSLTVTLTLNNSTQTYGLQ
In words: HotSpot radioisotope-based filter assay, PRMT3. As to the method: (§1) Then, ^3H-SAM (final concentration of 1 μM) was delivered into the reaction mixture to initiate the reaction. After incubation for 60 min at 30 °C, the reaction mixture was delivered to filter-paper for detection (as assessed by scintillation). Data were analyzed using Excel and GraphPad Prism 6.0 software (GraphPad Software Inc., San Diego, CA) for IC50 curve fits using sigmoidal dose vs response - variable slope (four parameters) equations.

In test [2] the target is T2, PRMT4 (Homo sapiens, UniProt Q86X55).
T2 construct: PRMT4 (residues 2–608, C-terminus); with an N-terminal GST-tag; GST (N); purchased Reaction Biology Corporation
T2 sequence (Q86X55 2-608): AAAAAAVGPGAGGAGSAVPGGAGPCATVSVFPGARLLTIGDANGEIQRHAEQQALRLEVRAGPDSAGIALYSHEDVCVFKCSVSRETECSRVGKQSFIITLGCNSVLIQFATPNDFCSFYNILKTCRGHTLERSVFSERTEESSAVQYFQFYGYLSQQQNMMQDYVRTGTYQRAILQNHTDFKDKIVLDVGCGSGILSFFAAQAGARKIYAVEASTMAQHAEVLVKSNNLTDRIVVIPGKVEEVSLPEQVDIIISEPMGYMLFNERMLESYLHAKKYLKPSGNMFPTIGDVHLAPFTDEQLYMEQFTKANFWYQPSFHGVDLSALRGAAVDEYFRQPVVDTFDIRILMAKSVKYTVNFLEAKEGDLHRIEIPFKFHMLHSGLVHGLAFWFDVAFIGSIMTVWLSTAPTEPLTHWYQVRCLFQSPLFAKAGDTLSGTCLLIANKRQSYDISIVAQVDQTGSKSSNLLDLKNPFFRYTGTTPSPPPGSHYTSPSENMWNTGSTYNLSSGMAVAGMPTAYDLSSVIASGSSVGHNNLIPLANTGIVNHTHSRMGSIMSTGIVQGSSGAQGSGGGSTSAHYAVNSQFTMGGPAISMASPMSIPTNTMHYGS
In words: HotSpot radioisotope-based filter assay, PRMT4. How it is done: as §1

Test [3] deals with T3, PRMT5/MEP50 complex (Homo sapiens, UniProt O14744).
T3 construct: residues PRMT5 2–637, C-terminus, and MEP50 2–342, C-terminus; FLAG (N); purchased Reaction Biology Corporation
T3 sequence (O14744 2-637): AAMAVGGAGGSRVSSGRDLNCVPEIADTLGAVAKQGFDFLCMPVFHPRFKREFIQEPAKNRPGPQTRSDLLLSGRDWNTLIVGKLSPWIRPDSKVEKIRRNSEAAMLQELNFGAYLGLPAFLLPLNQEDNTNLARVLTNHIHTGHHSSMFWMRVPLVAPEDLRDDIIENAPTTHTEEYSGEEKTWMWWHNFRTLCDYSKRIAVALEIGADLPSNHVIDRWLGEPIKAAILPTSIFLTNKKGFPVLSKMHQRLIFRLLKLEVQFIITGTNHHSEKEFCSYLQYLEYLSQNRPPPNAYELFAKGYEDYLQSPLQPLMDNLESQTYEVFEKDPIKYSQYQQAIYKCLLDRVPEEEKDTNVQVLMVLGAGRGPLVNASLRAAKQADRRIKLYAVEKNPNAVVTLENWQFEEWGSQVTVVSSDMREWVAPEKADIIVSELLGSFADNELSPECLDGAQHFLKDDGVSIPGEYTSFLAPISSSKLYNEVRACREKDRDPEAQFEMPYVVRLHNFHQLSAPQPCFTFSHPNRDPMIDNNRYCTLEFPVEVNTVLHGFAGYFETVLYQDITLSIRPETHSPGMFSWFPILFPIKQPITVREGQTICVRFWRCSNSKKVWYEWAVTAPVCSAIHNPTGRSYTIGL
T3 sequence (Q9BQA1 2-342 partner limits assumed): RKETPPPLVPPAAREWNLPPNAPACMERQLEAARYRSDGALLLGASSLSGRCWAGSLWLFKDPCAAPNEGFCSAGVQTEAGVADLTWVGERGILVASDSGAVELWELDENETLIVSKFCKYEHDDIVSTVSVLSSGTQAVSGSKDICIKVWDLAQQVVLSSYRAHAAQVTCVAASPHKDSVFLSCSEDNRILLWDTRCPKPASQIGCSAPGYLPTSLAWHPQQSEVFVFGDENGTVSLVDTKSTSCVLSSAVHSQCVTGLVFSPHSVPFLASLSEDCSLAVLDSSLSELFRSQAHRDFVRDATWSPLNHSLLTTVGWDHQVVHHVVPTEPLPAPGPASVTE
In words: HotSpot radioisotope-based filter assay, PRMT5. How it is done:
as §1

The target of test [4] is T4, PRMT6 (Homo sapiens, UniProt Q96LA8).
T4 construct: PRMT6 (residues 2–375, C-terminus); with an N-terminal GST-tag; GST (N); purchased Reaction Biology Corporation
Briefly: HotSpot radioisotope-based filter assay, PRMT6. How it is done:
as §1

Test [5] concerns the target T5, PRMT8 (Homo sapiens, UniProt Q9NR22).
T5 construct: (residues 61–394, C-terminus); with C- and N-terminal His-tags; His (N); His (C); purchased Reaction Biology Corporation
In words: HotSpot radioisotope-based filter assay, PRMT8. How it is done:
as §1

For test [6], the target named is T6, EZH2/KMT6 (5 component complex) (Homo sapiens, UniProt Q15910).
T6 construct: including EZH2 residues 2–746, AEBP2 2–517, EED 2–441; His (N); purchased Reaction Biology Corporation
T6 sequence (Q15910 2-746): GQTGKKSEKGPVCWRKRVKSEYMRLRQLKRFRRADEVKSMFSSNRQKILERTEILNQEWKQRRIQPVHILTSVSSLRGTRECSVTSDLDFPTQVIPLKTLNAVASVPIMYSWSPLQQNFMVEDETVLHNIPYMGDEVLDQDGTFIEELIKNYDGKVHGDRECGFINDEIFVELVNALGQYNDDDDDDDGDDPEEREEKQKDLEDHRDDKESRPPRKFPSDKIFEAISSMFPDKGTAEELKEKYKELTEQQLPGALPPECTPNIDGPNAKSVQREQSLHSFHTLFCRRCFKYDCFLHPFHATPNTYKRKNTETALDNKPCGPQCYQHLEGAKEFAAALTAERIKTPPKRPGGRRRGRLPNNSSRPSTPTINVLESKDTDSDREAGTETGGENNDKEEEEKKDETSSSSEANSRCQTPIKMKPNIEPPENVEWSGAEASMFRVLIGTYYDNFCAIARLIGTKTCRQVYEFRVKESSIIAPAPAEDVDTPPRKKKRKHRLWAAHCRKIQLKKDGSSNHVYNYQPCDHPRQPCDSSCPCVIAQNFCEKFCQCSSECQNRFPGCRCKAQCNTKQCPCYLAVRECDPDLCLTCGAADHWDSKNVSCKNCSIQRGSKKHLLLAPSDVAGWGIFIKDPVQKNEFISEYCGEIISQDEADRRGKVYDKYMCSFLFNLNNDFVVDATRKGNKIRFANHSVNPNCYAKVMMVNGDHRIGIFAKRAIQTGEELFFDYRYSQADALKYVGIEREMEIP
T6 sequence (Q6ZN18 2-517 partner limits assumed): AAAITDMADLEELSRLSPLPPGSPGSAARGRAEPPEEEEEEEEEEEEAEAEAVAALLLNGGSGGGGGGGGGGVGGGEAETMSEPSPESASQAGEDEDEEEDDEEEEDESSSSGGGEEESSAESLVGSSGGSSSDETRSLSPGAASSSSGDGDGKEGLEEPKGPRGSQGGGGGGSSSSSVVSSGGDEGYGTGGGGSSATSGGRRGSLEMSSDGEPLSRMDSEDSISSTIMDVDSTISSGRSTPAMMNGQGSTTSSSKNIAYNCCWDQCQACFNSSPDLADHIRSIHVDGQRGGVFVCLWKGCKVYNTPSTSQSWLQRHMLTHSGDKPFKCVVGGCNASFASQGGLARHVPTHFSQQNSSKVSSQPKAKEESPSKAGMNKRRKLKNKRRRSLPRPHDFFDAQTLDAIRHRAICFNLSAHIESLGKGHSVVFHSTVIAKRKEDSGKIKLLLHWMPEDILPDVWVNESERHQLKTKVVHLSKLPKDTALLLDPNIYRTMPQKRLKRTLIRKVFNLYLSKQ
T6 sequence (O75530 2-441 partner limits assumed): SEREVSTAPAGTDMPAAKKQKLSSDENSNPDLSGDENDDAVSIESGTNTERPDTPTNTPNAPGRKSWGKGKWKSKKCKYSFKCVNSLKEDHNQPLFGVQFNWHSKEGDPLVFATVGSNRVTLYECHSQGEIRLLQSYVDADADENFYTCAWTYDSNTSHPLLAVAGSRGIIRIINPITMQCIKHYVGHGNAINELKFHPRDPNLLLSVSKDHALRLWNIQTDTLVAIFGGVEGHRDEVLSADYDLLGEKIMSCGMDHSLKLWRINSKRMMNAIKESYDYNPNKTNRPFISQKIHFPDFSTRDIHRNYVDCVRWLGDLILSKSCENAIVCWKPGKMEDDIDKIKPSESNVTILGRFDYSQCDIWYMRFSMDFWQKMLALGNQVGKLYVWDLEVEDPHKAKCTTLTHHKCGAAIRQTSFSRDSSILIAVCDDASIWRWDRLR
T6 sequence (Q09028 2-425 partner limits assumed): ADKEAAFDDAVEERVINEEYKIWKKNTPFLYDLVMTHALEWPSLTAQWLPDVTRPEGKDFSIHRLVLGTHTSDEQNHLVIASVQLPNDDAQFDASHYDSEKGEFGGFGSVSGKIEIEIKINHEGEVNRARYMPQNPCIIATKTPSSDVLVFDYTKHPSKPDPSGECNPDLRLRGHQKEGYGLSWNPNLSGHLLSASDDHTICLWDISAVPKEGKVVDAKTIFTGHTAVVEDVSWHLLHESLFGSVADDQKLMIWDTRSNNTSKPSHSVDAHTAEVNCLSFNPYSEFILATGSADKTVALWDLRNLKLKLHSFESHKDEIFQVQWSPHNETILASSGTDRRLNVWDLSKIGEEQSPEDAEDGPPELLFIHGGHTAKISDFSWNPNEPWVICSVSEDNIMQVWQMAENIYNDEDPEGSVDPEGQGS
T6 sequence (Q15022 2-739 partner limits assumed): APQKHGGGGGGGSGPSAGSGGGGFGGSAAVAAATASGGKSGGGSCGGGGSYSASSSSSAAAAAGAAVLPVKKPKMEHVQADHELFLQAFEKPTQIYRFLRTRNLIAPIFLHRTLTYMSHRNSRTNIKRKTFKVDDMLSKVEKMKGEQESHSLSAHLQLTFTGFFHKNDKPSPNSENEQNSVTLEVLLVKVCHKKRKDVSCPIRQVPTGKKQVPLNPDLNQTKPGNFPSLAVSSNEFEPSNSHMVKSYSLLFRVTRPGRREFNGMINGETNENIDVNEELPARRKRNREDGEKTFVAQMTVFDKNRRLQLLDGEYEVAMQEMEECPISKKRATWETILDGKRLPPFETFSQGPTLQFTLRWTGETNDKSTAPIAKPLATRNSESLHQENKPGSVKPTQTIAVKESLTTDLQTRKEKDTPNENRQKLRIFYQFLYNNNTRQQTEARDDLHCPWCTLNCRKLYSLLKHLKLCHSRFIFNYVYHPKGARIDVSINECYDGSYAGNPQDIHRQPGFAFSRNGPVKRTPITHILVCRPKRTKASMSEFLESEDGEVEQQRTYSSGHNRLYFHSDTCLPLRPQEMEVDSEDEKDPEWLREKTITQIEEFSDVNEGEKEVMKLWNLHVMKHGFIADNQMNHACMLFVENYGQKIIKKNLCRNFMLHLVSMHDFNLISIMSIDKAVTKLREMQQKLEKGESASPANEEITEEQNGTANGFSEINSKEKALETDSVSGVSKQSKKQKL
In words: HotSpot KMT activity assay, EZH2. The note with it: read-out: % EZH2 residual activity. As to the method:
(§2) Then, ^3H-SAM (final concentration 1 μM) was delivered into the reaction mixture to initiate the reaction. After incubation for 60 min at 30 °C, the reaction mixture was delivered to filter paper for detection (as assessed by scintillation). […] No inhibitor control (DMSO) was considered as showing 100% enzyme activity. Data were analyzed using Excel and GraphPad Prism 6.0 software (GraphPad Software Inc., San Diego, CA). Values obtained for each compound are mean ± SD determined for two separate experiments.

The target in test [7] is T7, G9a/KMT1C (Homo sapiens, UniProt Q96KQ7).
T7 construct: the human recombinant G9a (residues 913–1193, C-terminus); with an N-terminal His-tag; His (N); purchased Reaction Biology Corporation
T7 sequence (Q96KQ7 913-1193): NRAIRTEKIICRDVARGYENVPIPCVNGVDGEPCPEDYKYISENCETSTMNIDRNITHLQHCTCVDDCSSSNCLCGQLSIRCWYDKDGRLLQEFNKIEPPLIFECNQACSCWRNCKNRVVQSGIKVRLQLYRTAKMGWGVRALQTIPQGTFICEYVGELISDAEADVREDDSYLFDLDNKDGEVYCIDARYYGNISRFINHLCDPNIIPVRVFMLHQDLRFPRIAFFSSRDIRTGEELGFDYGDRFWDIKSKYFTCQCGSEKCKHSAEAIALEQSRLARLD
In words: HotSpot KMT activity assay, G9a. The note with it: read-out: % G9a residual activity. How it is done:
as §2

The mark [8] stands for this setting: Figure 2, from IC50 values of ref 31.

T5 sequence (Q9NR22 61-394): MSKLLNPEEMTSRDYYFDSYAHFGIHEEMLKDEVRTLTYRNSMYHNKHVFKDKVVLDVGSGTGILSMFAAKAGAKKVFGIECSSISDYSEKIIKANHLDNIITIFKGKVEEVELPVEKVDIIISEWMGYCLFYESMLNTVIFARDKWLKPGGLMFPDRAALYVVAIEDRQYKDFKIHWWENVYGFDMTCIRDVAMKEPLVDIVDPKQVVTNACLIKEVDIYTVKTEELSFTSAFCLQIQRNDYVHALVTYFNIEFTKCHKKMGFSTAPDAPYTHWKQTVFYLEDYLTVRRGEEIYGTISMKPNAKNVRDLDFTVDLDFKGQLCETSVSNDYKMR

In the case of `COC(=O)c1cc(O)c2cc(NC(=O)NCCCCCNC(=N)NC[C@H]3O[C@@H](n4cnc5c(N)ncnc54)[C@H](O)[C@@H]3O)ccc2c1` [1c], the “selectivity index for PRMT7 over PRMT3” value in test [1] (setting [8]) stood at 97 fold. Further, the “selectivity index for PRMT7 over PRMT4” value in test [2] (setting [8]) amounted to 2 fold. Also, the “selectivity index for PRMT7 over PRMT5” value in test [3] (setting [8]) is 234 fold. Further, the “selectivity index for PRMT7 over PRMT6” value in test [4] (setting [8]) turned out to be 455 fold. In test [5] (setting [8]), the “selectivity index for PRMT7 over PRMT8” value turned out to be 27 fold.
With `COC(=O)c1cc(O)c2cc(NC(=O)NCCCNC(=N)NC[C@H]3O[C@@H](n4cnc5c(N)ncnc54)[C@H](O)[C@@H]3O)cc(C(F)(F)F)c2c1` [1j, Methyl 6-(3-(3-(3-(((2R,3S,4R,5R)-5-(6-Amino-9H-purin-9-yl)-3,4-dihydroxytetrahydrofuran-2-yl)methyl)guanidino)propyl)ureido)-4-hydroxy-8-(trifluoromethyl)-2-naphthoate], the IC50 was found to be 14900 nM in test [1] (5 μM histone H4, 3H-SAM 1 μM); 1460 nM in test [2] (5 μM histone H3, 3H-SAM 1 μM); 1010 nM in test [3] (5 μM histone H2A, 3H-SAM 1 μM); 49700 nM in test [4] (5 μM GST-GAR, 3H-SAM 1 μM); 1970 nM in test [5] (5 μM histone H4, 3H-SAM 1 μM). Moreover, the remaining activity at 10 µM in test [6] (10 μM) is 104.5 ± 0.99%; in test [7] (10 μM), 111 ± 4.3%. Moreover, the remaining activity at 100 µM in test [6] (100 μM) turned out to be 77.6 ± 3.43%; in test [7] (100 μM), 70.93 ± 0.31%.
